Read-outs that look alike come from different tables or passages of the source.
How the values were obtained:
[1] = system: amnesic failure induced by scopolamine; assay: Passive Avoidance test, scopolamine-induced amnesic failure, rats; type: in vivo; conditions: 0.5-1-2-4 mg/kg per os
[2] = biological target: T1, AChE hRBC (Homo sapiens, UniProt P22303); assay: biochemical; conditions: for AChE inhibitory activity and selectivity: AChE versus BuChE, Table 1
T1 construct: purchased Sigma Chemical; host or cells: human erythrocytes
T1 sequence (P22303 32-617 isoform P22303-2 limits assumed): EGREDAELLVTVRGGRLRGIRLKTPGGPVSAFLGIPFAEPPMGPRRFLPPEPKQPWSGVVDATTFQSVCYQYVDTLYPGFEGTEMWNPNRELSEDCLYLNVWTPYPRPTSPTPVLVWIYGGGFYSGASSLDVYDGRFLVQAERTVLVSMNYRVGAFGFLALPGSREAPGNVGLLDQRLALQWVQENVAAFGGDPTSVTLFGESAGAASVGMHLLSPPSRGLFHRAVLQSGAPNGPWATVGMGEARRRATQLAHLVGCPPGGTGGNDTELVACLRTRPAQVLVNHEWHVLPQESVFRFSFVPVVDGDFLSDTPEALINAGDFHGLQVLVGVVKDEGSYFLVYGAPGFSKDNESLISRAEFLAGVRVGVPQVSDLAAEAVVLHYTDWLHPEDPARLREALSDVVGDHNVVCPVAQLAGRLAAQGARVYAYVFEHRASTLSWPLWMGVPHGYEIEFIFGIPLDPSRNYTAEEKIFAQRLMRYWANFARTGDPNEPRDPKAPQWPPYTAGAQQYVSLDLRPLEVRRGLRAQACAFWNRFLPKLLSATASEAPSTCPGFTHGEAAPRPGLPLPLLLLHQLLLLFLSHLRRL
Experimental: (§1) The incubation time between enzyme and product used for the determinations has been 10'.
(§2) The acetylcholinesterase from human erythrocytes (AChE hRBC), the acetylcholinesterase from Electric Eel (AChE E.eel) and the butyrylcholinesterase from human serum (BuChE hserum) coming from the Sigma Chemical have been used.

[3] = biological target: T2, BuChE hserum (Homo sapiens, UniProt P06276); assay: Inhibition of butyrylcholinesterase from human serum (Ellman method); type: biochemical; conditions: for activity on the BuChE: Table 1
T2 construct: purchased Sigma Chemical; host or cells: human serum
T2 sequence (P06276 29-602): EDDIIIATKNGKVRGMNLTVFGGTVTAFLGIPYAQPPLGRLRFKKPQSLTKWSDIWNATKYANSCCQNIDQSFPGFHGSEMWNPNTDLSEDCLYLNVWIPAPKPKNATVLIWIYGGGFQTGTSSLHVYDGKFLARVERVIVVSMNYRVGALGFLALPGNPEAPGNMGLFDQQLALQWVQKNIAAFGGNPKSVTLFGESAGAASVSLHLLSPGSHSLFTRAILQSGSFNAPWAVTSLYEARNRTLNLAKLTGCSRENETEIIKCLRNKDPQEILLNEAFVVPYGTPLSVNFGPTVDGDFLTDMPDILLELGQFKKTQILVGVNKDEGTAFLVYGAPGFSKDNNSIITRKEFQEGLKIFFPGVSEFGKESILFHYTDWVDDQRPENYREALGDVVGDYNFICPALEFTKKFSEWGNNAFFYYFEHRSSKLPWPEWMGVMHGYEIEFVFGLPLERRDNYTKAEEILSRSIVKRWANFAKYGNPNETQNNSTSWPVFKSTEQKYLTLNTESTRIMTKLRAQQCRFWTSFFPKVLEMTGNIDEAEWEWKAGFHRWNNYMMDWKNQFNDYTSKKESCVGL
Experimental: as §1, §2

[4] = biological target: T3, AChE E. eel (Electrophorus electricus, UniProt O42275); assay: biochemical; design: species or system Electric Eel
T3 construct: purchased Sigma Chemical
T3 sequence (O42275 24-633): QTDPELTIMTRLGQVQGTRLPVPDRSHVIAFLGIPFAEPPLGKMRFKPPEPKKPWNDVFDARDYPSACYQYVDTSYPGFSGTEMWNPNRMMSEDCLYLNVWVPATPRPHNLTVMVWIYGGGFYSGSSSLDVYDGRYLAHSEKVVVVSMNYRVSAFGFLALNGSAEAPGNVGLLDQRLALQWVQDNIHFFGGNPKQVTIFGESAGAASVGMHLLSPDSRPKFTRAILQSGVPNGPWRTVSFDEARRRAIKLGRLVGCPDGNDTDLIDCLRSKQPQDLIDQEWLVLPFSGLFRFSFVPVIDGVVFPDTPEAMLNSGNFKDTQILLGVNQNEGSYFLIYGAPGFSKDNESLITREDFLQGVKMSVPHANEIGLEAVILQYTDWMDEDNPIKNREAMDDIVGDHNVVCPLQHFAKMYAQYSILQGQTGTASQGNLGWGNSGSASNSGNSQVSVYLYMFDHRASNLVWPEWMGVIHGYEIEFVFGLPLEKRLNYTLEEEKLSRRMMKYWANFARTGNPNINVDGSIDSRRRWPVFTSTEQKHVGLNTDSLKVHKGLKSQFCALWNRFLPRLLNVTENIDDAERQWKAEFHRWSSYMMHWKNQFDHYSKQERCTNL
Experimental: as §1, §2

[5] = Acute toxicity (single administration) in mouse; conditions: in vivo
[6] = Acute toxicity (single administration) in rat; conditions: in vivo
[7] = system: acetylcholinesterase; conditions: prior art; cited from earlier work
[8] = prior art; cited from earlier work
[9] = prior art, cited from earlier work; for transaminase levels: Eur. Neuropsychopharmacol. 1(3) (1991)
[10] = system: mental pathologies / Alzheimer's disease; conditions: prior art, clinical studies; cited from earlier work
[11] = iv, read-out: Toxicity tests (LD50), mouse iv
[12] = po, os, read-out: Toxicity tests (LD50), mouse os
[13] = po, os, read-out: Toxicity tests (LD50), rat os
[14] = iv, read-out: Toxicity tests (LD50), rat iv

| SMILES | IC50 [2] [nM] | potency compared with eptastigmine, physostigmine or tacrine ([2]; comparison from Table 1) | IC50 [3] [µM] | LD50 [5, 11] [mg/kg] | LD50 [5, 12] [mg/kg] | LD50 [6, 13] [mg/kg] | LD50 [6, 14] [mg/kg] | AChE inhibitory activity and selectivity [2] | activity on the BuChE [3] | further results |
| --- | --- | --- | --- | --- | --- | --- | --- | --- | --- | --- |
| CN(C)CC(C)(C)c1cccc(OC(=O)NCCCCCCCCN2CCOCC2)c1 [Ex. 1, 3-[(1-dimethylamino-2-methyl)prop-2-yl]-N-[8-(4-morpholinyl)octyl]phenylcarbamate] | 160 | equal or even superior to that of eptastigmine or of physostigmine | 0.016 | 15 | 67 | 33 |  |  |  | reduction of amnesic failure induced by scopolamine in the Passive Avoidance test [1]: able to reduce the amnesic failure induced by scopolamine; IC50 [4]: 470 nM |
| CCCCCCCNC(=O)Oc1ccc2c(c1)[C@]1(C)CCN(C)[C@@H]1N2C [Eptastigmine, heptylcarbamic ester of the eseroline, reference compound] |  |  | 0.14 | 7 | 25 | 23 | 5 |  |  | inhibition of acetylcholinesterase [7]: less powerful; pharmacokinetic characteristics [8]: better pharmacokinetic characteristics; IC50 ([4]; incubation time 10', read-out: Inhibition of the cholinesterase (IC50 M), AChE E. eel): 50 nM; side-effects [9]: reduced side-effects |
| CN(C)CC(C)(C)c1cccc(OC(=O)N(C)C2CCCCC2)c1 [Ex. 40, 3-[(1-dimethylamino-2-methyl)prop-2-yl]-N-cyclohexyl-N-methyl phenylcarbamate] | 180 | equal or even superior to that of eptastigmine or of physostigmine | > 100 |  |  | > 40 |  | potent and selective AChE inhibitory activity | poor activity on the BuChE |  |
| CNC(=O)Oc1ccc2c(c1)[C@]1(C)CCN(C)[C@@H]1N2C [Physostigmine, reference compound] |  |  |  | 0.6 | 3.4 |  |  |  |  | potency compared with eptastigmine, physostigmine or tacrine [2]: superior to that of tacrine; inhibition of acetylcholinesterase [7]: powerful natural inhibitor of the acetylcholinesterase; pharmacokinetic characteristics [8]: unfavourable pharmacokinetic characteristics; efficacy in patients [10]: beneficial results in the treatment of the patients affected by mental pathologies |
| Nc1c2c(nc3ccccc13)CCCC2 [Tacrine, 9-amino-1,2,3,4-tetrahydroacridine] |  |  |  |  |  |  |  |  |  | transaminase levels [9]: induce high transaminase levels |
| CN(C)CC(C)(C)c1cccc(OC(=O)N(C)c2ccccc2)c1 [Ex. 25, 3-[(1-dimethylamino-2-methyl)prop-2-yl]-N-phenyl-N-methyl-phenylcarbamate] | 1700 |  | > 1000 | 15 |  | 56 | 14 | potent and selective AChE inhibitory activity | poor activity on the BuChE |  |
| Nc1c2c(nc3ccccc13)CCCC2O (stereo not shown) [Velnacrine] |  |  |  |  |  |  |  |  |  | transaminase levels [9]: induce high transaminase levels |
| C[C@@H]1CN(CCCCCCCCNC(=O)Oc2cccc(C(C)(C)CN(C)C)c2)C[C@H](C)O1 [Ex. 2, 3-[(1-dimethylamino-2-methyl)-prop-2-yl]-N-8-[[4-(cis2,6-dimethyl)morpholinyl]octyl]-phenylcarbamate] | 420 |  | 0.02 |  | > 50 |  |  |  |  | IC50 [4]: 1100 nM |
| COc1ccc(N(C)C(=O)Oc2cccc(C(C)(C)CN(C)C)c2)cc1 [Ex. 35, 3-[(1-dimethylamino-2-methyl)prop-2-yl]-N-methyl-N-(4-methoxy)phenyl phenylcarbamate] | 13 | equal or even superior to that of eptastigmine or of physostigmine | > 100 |  |  | 40 | 3 | potent and selective AChE inhibitory activity | poor activity on the BuChE |  |

From US5869484A, “Phenylcarbamate derivatives suitable to the use as anticholinesterase substances” (priority 1994, dated 1999)
